Data reported in ChEMBL document CHEMBL1201862, “PubChem BioAssay data set” (2004).
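Growth conditions: 96-well plates. Treatment: test compound, 48 hours, 5 concentrations. Analysis: linear interpolation between bracketing concentrations; unreached endpoints set to highest concentration. GI50 marks 50% less growth.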 Activity calls are given as the source filed them. Rule as the data show it: active = GI50 up to about 1.1 µM and inactive = higher.

Assays:
Test in all cases: growth of human tumour cells (NCI), 48 h
IGROV-1 = system: IGROV-1
HCT-15 = system: HCT-15
OVCAR-3 = system: OVCAR-3
SF-268 = system: SF-268
K562 = system: K562
SK-MEL-2 = system: SK-MEL-2
COLO 205 = system: COLO 205
SF-539 = system: SF-539
A549 = system: A549
MDA-N = system: MDA-N
UACC-257 = system: UACC-257
RPMI-8226 = system: RPMI-8226
SF-295 = system: SF-295
HL-60 = system: HL-60
SK-MEL-28 = system: SK-MEL-28
NCI-H460 = system: NCI-H460
BT-549 = system: BT-549
HT-29 = system: HT-29
NCI-H23 = system: NCI-H23
HOP-62 = system: HOP-62
MCF7 = system: MCF7
MDA-MB-231 = system: MDA-MB-231
NCI-H226 = system: NCI-H226
TK-10 = system: TK-10
KM12 = system: KM12
A498 = system: A498
ACHN = system: ACHN
RXF 393 = system: RXF 393
SN12C = system: SN12C
SK-MEL-5 = system: SK-MEL-5
OVCAR-8 = system: OVCAR-8
U-251 = system: U-251
SNB-75 = system: SNB-75
NCI/ADR-RES = system: NCI/ADR-RES
HCT-116 = system: HCT-116
UO-31 = system: UO-31
SR = system: SR
SNB-19 = system: SNB-19
SW-620 = system: SW-620
OVCAR-4 = system: OVCAR-4
OVCAR-5 = system: OVCAR-5
M14 = system: M14
MOLT-4 = system: MOLT-4
UACC-62 = system: UACC-62
SK-OV-3 = system: SK-OV-3
T47D = system: T47D
Hs-578T = system: Hs-578T
DU-145 = system: DU-145
CAKI-1 = system: CAKI-1
HOP-92 = system: HOP-92
MDA-MB-435 = system: MDA-MB-435
EKVX = system: EKVX
CCRF-CEM = system: CCRF-CEM
NCI-H522 = system: NCI-H522
LOX IMVI = system: LOX IMVI
Malme-3M = system: Malme-3M
PC-3 = system: PC-3
HCC 2998 = system: HCC 2998
786-0 = system: 786-0

## CCCCN1CN2C(=O)C(C(=O)OCC)C(=O)c3sc4nc(SC)nc1c4c32 (configuration not stated)
IGROV-1
  GI50: 18.9 µM (inactive)
HCT-15
  GI50: 20 µM
OVCAR-3
  GI50: 19 µM (inactive)
SF-268
  GI50: 19.9 µM (inactive)
K562
  GI50: 35.5 µM (inactive)
SK-MEL-2
  GI50: 19.8 µM (inactive)
COLO 205
  GI50: 18.7 µM (inactive)
SF-539
  GI50: 18.5 µM (inactive)
A549
  GI50: 19.9 µM (inactive)
MDA-N
  GI50: 17.1 µM (inactive)
UACC-257
  GI50: 19 µM (inactive)
RPMI-8226
  GI50: 21.1 µM (inactive)
SF-295
  GI50: 16.6 µM (inactive)
HL-60
  GI50: 46.6 µM (inactive)
SK-MEL-28
  GI50: 19.8 µM (inactive)
NCI-H460
  GI50: 19.5 µM (inactive)
BT-549
  GI50: 16.6 µM (inactive)
HT-29
  GI50: 19.8 µM (inactive)
NCI-H23
  GI50: 18 µM (inactive)
HOP-62
  GI50: 15.7 µM (inactive)
MCF7
  GI50: 21 µM (inactive)
MDA-MB-231
  GI50: 17.9 µM (inactive)
NCI-H226
  GI50: 19 µM (inactive)
TK-10
  GI50: 14.9 µM (inactive)
KM12
  GI50: 16.8 µM (inactive)
A498
  GI50: 1.53 µM (inactive)
ACHN
  GI50: 17 µM (inactive)
RXF 393
  GI50: 20.5 µM (inactive)
SN12C
  GI50: 19.7 µM (inactive)
SK-MEL-5
  GI50: 12.3 µM (inactive)
OVCAR-8
  GI50: 21.6 µM (inactive)
U-251
  GI50: 18.2 µM (inactive)
SNB-75
  GI50: 17.5 µM (inactive)
NCI/ADR-RES
  GI50: 19 µM (inactive)
HCT-116
  GI50: 15.9 µM (inactive)
UO-31
  GI50: 21.1 µM (inactive)
SR
  GI50: 33.1 µM (inactive)
SNB-19
  GI50: 19 µM (inactive)
SW-620
  GI50: 18.4 µM (inactive)
OVCAR-4
  GI50: 18.8 µM (inactive)
OVCAR-5
  GI50: 18.6 µM (inactive)
M14
  GI50: 22.4 µM (inactive)
MOLT-4
  GI50: 29 µM (inactive)
UACC-62
  GI50: 17.7 µM (inactive)
SK-OV-3
  GI50: 17.6 µM (inactive)
T47D
  GI50: 19.7 µM (inactive)
Hs-578T
  GI50: < 0.01 µM (active)
DU-145
  GI50: 19 µM (inactive)
CAKI-1
  GI50: 17.3 µM (inactive)
HOP-92
  GI50: 14.9 µM (inactive)
MDA-MB-435
  GI50: 18.2 µM (inactive)
EKVX
  GI50: 17.9 µM (inactive)
CCRF-CEM
  GI50: 34 µM (inactive)
NCI-H522
  GI50: 18.9 µM (inactive)
LOX IMVI
  GI50: 20.5 µM (inactive)
Malme-3M
  GI50: 15 µM (inactive)
PC-3
  GI50: 19.2 µM (inactive)

## O=C(O)CCCN/C(=C1\C(=O)C(=O)N(c2ccccc2)C1=O)c1ccccc1
IGROV-1
  GI50: > 100 µM (inactive)
HCT-15
  GI50: > 100 µM
OVCAR-3
  GI50: > 100 µM (inactive)
SF-268
  GI50: > 100 µM (inactive)
K562
  GI50: > 100 µM (inactive)
SK-MEL-2
  GI50: > 100 µM (inactive)
COLO 205
  GI50: > 100 µM (inactive)
SF-539
  GI50: 82 µM (inactive)
A549
  GI50: > 100 µM (inactive)
MDA-N
  GI50: > 100 µM (inactive)
UACC-257
  GI50: > 100 µM (inactive)
RPMI-8226
  GI50: > 100 µM (inactive)
SF-295
  GI50: > 100 µM (inactive)
HL-60
  GI50: > 100 µM (inactive)
SK-MEL-28
  GI50: > 100 µM (inactive)
NCI-H460
  GI50: > 100 µM (inactive)
BT-549
  GI50: > 100 µM (inactive)
HT-29
  GI50: > 100 µM (inactive)
NCI-H23
  GI50: > 100 µM (inactive)
HOP-62
  GI50: > 100 µM (inactive)
MCF7
  GI50: > 100 µM (inactive)
MDA-MB-231
  GI50: > 100 µM (inactive)
NCI-H226
  GI50: > 100 µM (inactive)
TK-10
  GI50: > 100 µM (inactive)
KM12
  GI50: > 100 µM (inactive)
ACHN
  GI50: > 100 µM (inactive)
RXF 393
  GI50: > 100 µM (inactive)
SN12C
  GI50: > 100 µM (inactive)
SK-MEL-5
  GI50: > 100 µM (inactive)
OVCAR-8
  GI50: > 100 µM (inactive)
U-251
  GI50: > 100 µM (inactive)
SNB-75
  GI50: > 100 µM (inactive)
NCI/ADR-RES
  GI50: > 100 µM (inactive)
HCT-116
  GI50: > 100 µM (inactive)
UO-31
  GI50: > 100 µM (inactive)
HCC 2998
  GI50: > 100 µM (inactive)
SR
  GI50: 20 µM (inactive)
SNB-19
  GI50: > 100 µM (inactive)
SW-620
  GI50: > 100 µM (inactive)
OVCAR-4
  GI50: 37.2 µM (inactive)
OVCAR-5
  GI50: > 100 µM (inactive)
M14
  GI50: > 100 µM (inactive)
MOLT-4
  GI50: > 100 µM (inactive)
UACC-62
  GI50: > 100 µM (inactive)
SK-OV-3
  GI50: > 100 µM (inactive)
T47D
  GI50: > 100 µM (inactive)
786-0
  GI50: > 100 µM (inactive)
Hs-578T
  GI50: > 100 µM (inactive)
DU-145
  GI50: > 100 µM (inactive)
CAKI-1
  GI50: > 100 µM (inactive)
HOP-92
  GI50: > 100 µM (inactive)
MDA-MB-435
  GI50: > 100 µM (inactive)
EKVX
  GI50: > 100 µM (inactive)
CCRF-CEM
  GI50: > 100 µM (inactive)
NCI-H522
  GI50: > 100 µM (inactive)
LOX IMVI
  GI50: > 100 µM (inactive)
Malme-3M
  GI50: > 100 µM (inactive)
PC-3
  GI50: > 100 µM (inactive)

## COc1ccc(CC2OC3(CCCCC3)CC3CCCCN32)cc1 (configuration not stated)
IGROV-1
  GI50: > 100 µM (inactive)
HCT-15
  GI50: > 100 µM
OVCAR-3
  GI50: 46 µM (inactive)
SF-268
  GI50: > 100 µM (inactive)
K562
  GI50: 27.1 µM (inactive)
SK-MEL-2
  GI50: > 100 µM (inactive)
COLO 205
  GI50: > 100 µM (inactive)
A549
  GI50: > 100 µM (inactive)
MDA-N
  GI50: 52.6 µM (inactive)
UACC-257
  GI50: > 100 µM (inactive)
RPMI-8226
  GI50: 23.4 µM (inactive)
SF-295
  GI50: > 100 µM (inactive)
HL-60
  GI50: > 100 µM (inactive)
SK-MEL-28
  GI50: > 100 µM (inactive)
NCI-H460
  GI50: > 100 µM (inactive)
BT-549
  GI50: > 100 µM (inactive)
HT-29
  GI50: 57.4 µM (inactive)
NCI-H23
  GI50: > 100 µM (inactive)
HOP-62
  GI50: > 100 µM (inactive)
MCF7
  GI50: 72.9 µM (inactive)
MDA-MB-231
  GI50: 10.3 µM (inactive)
NCI-H226
  GI50: 53 µM (inactive)
TK-10
  GI50: > 100 µM (inactive)
KM12
  GI50: > 100 µM (inactive)
ACHN
  GI50: > 100 µM (inactive)
RXF 393
  GI50: > 100 µM (inactive)
SN12C
  GI50: > 100 µM (inactive)
SK-MEL-5
  GI50: 49.2 µM (inactive)
OVCAR-8
  GI50: 40.9 µM (inactive)
U-251
  GI50: > 100 µM (inactive)
SNB-75
  GI50: 91.2 µM (inactive)
NCI/ADR-RES
  GI50: 50.1 µM (inactive)
HCT-116
  GI50: 43.8 µM (inactive)
UO-31
  GI50: > 100 µM (inactive)
HCC 2998
  GI50: > 100 µM (inactive)
SR
  GI50: 28.8 µM (inactive)
SNB-19
  GI50: > 100 µM (inactive)
SW-620
  GI50: 39.4 µM (inactive)
OVCAR-4
  GI50: > 100 µM (inactive)
OVCAR-5
  GI50: > 100 µM (inactive)
M14
  GI50: 76.6 µM (inactive)
MOLT-4
  GI50: 75.9 µM (inactive)
UACC-62
  GI50: > 100 µM (inactive)
SK-OV-3
  GI50: > 100 µM (inactive)
T47D
  GI50: > 100 µM (inactive)
786-0
  GI50: > 100 µM (inactive)
Hs-578T
  GI50: 36.7 µM (inactive)
DU-145
  GI50: > 100 µM (inactive)
CAKI-1
  GI50: > 100 µM (inactive)
HOP-92
  GI50: 98.9 µM (inactive)
MDA-MB-435
  GI50: 50 µM (inactive)
EKVX
  GI50: > 100 µM (inactive)
CCRF-CEM
  GI50: 47 µM (inactive)
NCI-H522
  GI50: > 100 µM (inactive)
LOX IMVI
  GI50: 48.3 µM (inactive)
Malme-3M
  GI50: > 100 µM (inactive)
PC-3
  GI50: > 100 µM (inactive)
